Data taken from patent US6841569B2, “Carbamates of 2-heterocyclic-1,2-ethanediols” (SK Corporation, priority 2001, dated 2005).

Experiments:
mice (ICR strain) = experiment: Maximal ElectroShock (MES) test; type: in vivo; conditions: dosed i.p., Hour 1, elimination of hindlimb tonic extension, 50 mA-60 Hz for 0.2 second
Experimental: The therapeutic use of the compounds of formula I as anticonvulsants has been established by the “Maximal ElectroShock (MES)” test, which is a well-established pharmacological screening method for anticonvulsants against partial seizures, and the results are presented in Table I. The procedure employed in the MES test for anticonvulsants is as follows. The dosing solutions of the compounds to be tested were prepared in saline. The subjects, namely, mice (ICR strain), were dosed i.p. After the designated number of hours, maximal electroshock was induced in mice via corneal electrodes using IITC Life Science model 11A Shocker at 50 mA-60 Hz for 0.2 second. […] Median efficacy dose (ED50) levels were determined using three different dose levels with at least 6 mice in each group.

Row | SMILES | MES ED50 (mice (ICR strain)) | melting point
1 | CNC(=O)OCC(OC(=O)NC)c1ccc(Cl)s1 (stereo not drawn) [Example 7] | 37.4 mg/kg | –
2 | NC(=O)OCC(OC(N)=O)c1ccc(C(F)(F)F)s1 (stereo not drawn) [Example 14, (2-(5-trifluoromethyl-2-thienyl)-2-carbomoyloxyethyl)oxocarboxamide] | 12.6 mg/kg | –
3 | O=NC(=O)CC(O)c1cccs1 (stereo not drawn) [Example 21, (2-(2-thienyl)-2-hydroxyethyl)oxocarboxamide] | – | 71 to 73 °C
